Measured values as given in patent US20240216312A1, “PPAR-AGONISTS FOR USE IN THE TREATMENT OF LIVER FAILURE” (Genfit, priority 2021, published 2024).
Like-named read-outs stand apart in the source and are kept apart here.

Legend:
[1] = system: THP1 macrophages; assay: LPS (Klebsiella pneumoniae) activation of THP1 macrophages, MCP1 and TNFα secretion (HTRF); format: cell-based, human; conditions: 24 h, then LPS Klebsiella 6 h; for inhibition at 1 µM / inhibition at 10 µM: Homo sapiens; for inhibition at 1 µM: THP-1, 1 μM; for inhibition at 10 µM: THP-1, 10 μM
Experimental: In order to test the efficacy of the compounds on macrophage activation and pro-inflammatory cytokine production, 2.5×10^4 THP-1 cells were cultured in a 384-well plate and treated with 100 ng/mL PMA (#P8139, Sigma) for 24 h to induce differentiation into macrophages.
Then, medium was removed and FBS-deprived medium containing 1 or 10 μM compound was added for 24 h. Finally, THP1 macrophages were stimulated for 6 h with 100 ng/mL LPS (Klebsiella pneumoniae, #L4268, Sigma-Aldrich).
Monocyte chemoattractant protein 1 (MCP1) and Tumor necrosis α (TNFα) were measured in cell supernatants by Homogeneous Time Resolved Fluorescence (HTRF, #62[…] for TNFα, and 62HCCL2PEG for MCP1, Cisbio). Fluorescence was measured with Infinite 500 (#30019337, Tecan) to determine the concentration of cytokines.
In order to evaluate the effect of the compounds according to the invention on LPS-induced cytokines production by macrophages, the percentage of inhibition over the vehicle condition were calculated for each compound at 1 and 10 μM.

[2] = system: HepG2 cells; assay: Staurosporin-induced apoptosis in HepG2 cells, caspase 3/7 activity; format: cell-based, human; conditions: 16 h pre-treatment, then 10 μM staurosporin 4 h; for inhibition at 0.3 µM: Homo sapiens, HepG2, 0.3 μM, read-out: % Inhibition of caspase activity over mean Veh.; for % Inhibition of caspase activity over mean Veh.: 0.3 μM
Experimental: In order to evaluate the effect of the compounds on human hepatocytes that undergo a cellular stress induced by staurosporin, the human hepatoblastoma-derived HepG2 cell line (ECACC, #85011430, Sigma-Aldrich) was cultured in high-glucose DMEM medium (#41965, Gibco, France) supplemented with 10% of fetal bovine serum (FBS, #10270, Gibco), 1% penicillin/streptomycin (#15140, Gibco), 1% sodium pyruvate (#11360, Gibco) and 1% MEM non-essential amino acids (#11140, Gibco) in a 5% CO2 incubator at 37° C.
To evaluate caspase 3/7 activity, which is a surrogate marker of apoptosis, 1.5×10^4 cells were plated in a 384-well plate (#781080, Greiner, France). After cell adherence (8 hours), cells were serum starved for 16 h in the presence of 0.3 μM of compounds or vehicle. Cpd.1 was also used at 3 and 10 μM. Thereafter, cells were treated with 10 μM staurosporin (#569397, Sigma-Aldrich, Germany) supplemented with compound for additional 4 hours before cell lysis and caspase activity measurement.
Caspase 3/7 activity was measured using Caspase Glow™ 3/7 assay (#G8093, Promega, USA). Luminescence was measured using a Spark microplate reader (#30086376, Tecan, USA). The amount of luminescence (RLU) directly correlates with caspase 3/7 activity.

[3] = system: LPS-induced endotoxemia, Sprague Dawley rats; assay: LPS-induced endotoxemia in rats, hepatic markers and serum TNFα; format: in vivo; conditions: rat, 100 mg/kg/day oral 3 days before LPS, 3 h after LPS
[4] = system: LPS/GaIN acute liver failure, C57BL/6J mice; assay: LPS/GalN model of acute liver failure in mice, hepatic gene expression, serum cytokines and albumin; format: in vivo, mouse; conditions: mouse serum, 1 mg/kg/day oral 3 days before LPS/GaIN, 4 h after injection
[5] = read-out: % inhibition of MCP1 secretion over mean Veh.
[6] = read-out: % inhibition of TNFα secretion over mean Veh.

**Q.** With `CSc1ccc(C(CCc2cc(C)c(OC(C)(C)C(=O)O)c(C)c2)OC(C)C)cc1` (stereo not drawn) [Cpd. 5, 2-[2,6-dimethyl-4-[3-[4-(methylthio)phenyl]-3-isopropyloxypropyl]phenoxy]-2-methylpropanoic acid] as the compound, how does the inhibition at 1 µM [1, 5] read?
**A.** The inhibition at 1 µM was 93%.

**Q.** `CCO[C@H](COc1ccc(C(F)(F)F)cc1)CSc1ccc(OCC(=O)O)c(C)c1.NCCCC[C@H](N)C(=O)O.O.O` [Cpd. 20, seladelpar lysine, reference compound] was tested. Which “% inhibition of MCP1 secretion over mean Veh.” value (“% inhibition of MCP1 secretion” below) ([1]; 1 μM) did it give?
**A.** The value was 105%.

**Q.** Which inhibition at 1 µM [1, 5] does the source give for `Cc1cc(CCC(=O)c2ccc(OC(F)(F)F)cc2)cc(C)c1OC(C)(C)C(=O)O` [Cpd. 2, 2-[2,6-dimethyl-4-[3-[4-(trifluoromethyloxy)phenyl]-3-oxo-propyl]phenoxy]-2-methylpropanoic acid] here?
**A.** The inhibition at 1 µM was 96%.

**Q.** For `Cc1cc(CCC(=O)c2ccc(C(F)(F)F)cc2)cc(C)c1OC(C)(C)C(=O)O` [Cpd. 3, 2-[2,6-dimethyl-4-[3-[4-(trifluoromethyl)phenyl]-3-oxo-propyl]phenoxy]-2-methylpropanoic acid], which inhibition at 1 µM [1, 5] is on record?
**A.** Its inhibition at 1 µM is 90%.

**Q.** What about the inhibition at 1 µM [1, 6] of the same compound?
**A.** Its inhibition at 1 µM is 0%.

**Q.** What about the inhibition at 10 µM [1, 6] of the same compound?
**A.** Its inhibition at 10 µM is 11 to 58%.

**Q.** `O=C(O)CCCc1cc2cc(Cl)ccc2n1S(=O)(=O)c1ccc2ncsc2c1` [Cpd. 23, lanifibranor, reference compound] was tested. Which inhibition at 1 µM [1, 5] did it give?
**A.** Its inhibition at 1 µM is 100%.

**Q.** What about the inhibition at 1 µM [1, 6] of the same compound?
**A.** Its inhibition at 1 µM is 15%.

**Q.** What does the source list for `CN(CCOc1ccc(CC2SC(=O)NC2=O)cc1)c1ccccn1` (stereo not drawn) [Cpd. 22, rosiglitazone, reference compound]?
**A.** % inhibition of MCP1 secretion over mean Veh. ([1]; 1 μM): 79%; % inhibition of TNFα secretion over mean Veh. ([1]; 1 μM): 36%; % inhibition of MCP1 secretion over mean Veh. ([1]; 10 μM, 10 µM): 117%; % inhibition of TNFα secretion over mean Veh. ([1]; 10 μM, 10 µM): 11%

**Q.** Which inhibition at 1 µM [1, 5] does the source give for `CCc1ccc(CCOc2ccc(CC3SC(=O)NC3=O)cc2)nc1` (stereo not drawn) [Cpd. 21, pioglitazone, reference compound] here?
**A.** The inhibition at 1 µM was 80%.

**Q.** What about the inhibition at 1 µM [1, 6] of the same compound?
**A.** Its inhibition at 1 µM is 0%.

**Q.** What about the inhibition at 10 µM [1, 6] of the same compound?
**A.** Its inhibition at 10 µM is 11 to 58%.

**Q.** Which results are given for `CC(C)(Oc1ccc(CCNC(=O)c2ccc(Cl)cc2)cc1)C(=O)O` [Cpd. 17, bezafibrate, reference compound]?
**A.** inhibition at 1 µM [1, 5]: 22%; inhibition at 10 µM [1, 5]: 54 to 132%

**Q.** Which inhibition at 1 µM [1, 5] does the source give for `CON=C(CCc1cc(C)c(OC(C)(C)C(=O)O)c(C)c1)c1ccc(OC(F)(F)F)cc1` [Cpd. 7, 2-(4-(3-(methoxyimino)-3-(4-(trifluoromethoxy)phenyl)propyl)-2,6-dimethylphenoxy)-2-methylpropanoic acid] here?
**A.** Its inhibition at 1 µM is 95%.

**Q.** What about the inhibition at 1 µM [1, 6] of the same compound?
**A.** Its inhibition at 1 µM is 25%.

**Q.** With `Cc1cc(CCC(O)c2ccc(OC(F)(F)F)cc2)cc(C)c1OC(C)(C)C(=O)O` (stereo not drawn) [Cpd. 6, 2-(4-(3-hydroxy-3-(4-(trifluoromethoxy)phenyl)propyl)-2,6-dimethylphenoxy)-2-methylpropanoic acid] as the compound, how does the inhibition at 1 µM [1, 5] read?
**A.** Its inhibition at 1 µM is 94%.

**Q.** And the inhibition at 0.3 µM [2]?
**A.** Its inhibition at 0.3 µM is 26 to 79%.

**Q.** Which “% inhibition of MCP1 secretion” value ([1]; 10 μM, 10 µM) does the source give for `COC(CCc1cc(C)c(OC(C)(C)C(=O)O)c(C)c1)c1ccc(C(F)(F)F)cc1` (stereo not drawn) [Cpd. 13, 2-(4-(3-methoxy-3-(4-(trifluoromethyl)phenyl)propyl)-2,6-dimethylphenoxy)-2-methylpropanoic acid] here?
**A.** Its value is 111%.

**Q.** What about the “% inhibition of TNFα secretion over mean Veh.” value ([1]; 10 μM, 10 µM) of the same compound?
**A.** Its value is 18%.

**Q.** And the inhibition at 1 µM [1, 5]?
**A.** The inhibition at 1 µM was 99%.

**Q.** What about the inhibition at 1 µM [1, 6] of the same compound?
**A.** The inhibition at 1 µM was 0%.

**Q.** What about the inhibition at 10 µM [1, 6] of the same compound?
**A.** The inhibition at 10 µM was 11 to 58%.

**Q.** And the “% Inhibition of caspase activity over mean Veh.” value [2]?
**A.** Its value is 79%.

**Q.** Which “% inhibition of MCP1 secretion” value ([1]; 10 μM, 10 µM) does the source give for `COC(CCc1cc(C)c(OC(C)(C)C(=O)O)c(C)c1)c1ccc(SC)cc1` (stereo not drawn) [Cpd. 4, 2-[2,6-dimethyl-4-[3-[4-(methylthio)phenyl]-3-methoxypropyl]phenoxy]-2-methylpropanoic acid] here?
**A.** Its value is 110%.

**Q.** And the inhibition at 1 µM [1, 5]?
**A.** The inhibition at 1 µM was 100%.

**Q.** What about the “% Inhibition of caspase activity over mean Veh.” value [2] of the same compound?
**A.** Its value is 32%.

**Q.** And the inhibition at 0.3 µM [2]?
**A.** The inhibition at 0.3 µM was 26 to 79%.

**Q.** How did the inhibition at 1 µM [1, 5] turn out when `COC(CCc1cc(C)c(OC(C)(C)C(=O)O)c(C)c1)c1ccc(Br)cc1` (stereo not drawn) [Cpd. 14, 2-[2,6-dimethyl-4-[3-[4-bromophenyl]-3-methoxypropyl]phenoxy]-2-methylpropanoic acid] was run?
**A.** Its inhibition at 1 µM is 91%.

**Q.** And the inhibition at 1 µM [1, 6]?
**A.** The inhibition at 1 µM was 18%.

**Q.** Which results are given for `CC(C)OC(=O)C(C)(C)Oc1ccc(C(=O)c2ccc(Cl)cc2)cc1` [Cpd. 19, fenofibrate]?
**A.** reduction of LPS-induced serum TNFα level [3]: 85%; restoration of serum albumin concentration compared to vehicle [3]: 79%

**Q.** What does the source list for `CCOC(CCc1ccc(OC(C)(C)C(=O)O)c(Cl)c1Cl)c1sc(-c2ccc(C(F)(F)F)cc2)nc1C` (stereo not drawn) [Cpd. 9, 2-(2,3-dichloro-4-(3-ethoxy-3-(4-methyl-2-(4-(trifluoromethyl)-phenyl)thiazol-5-yl)propyl)phenoxy)-2-methylpropanoic acid]?
**A.** inhibition at 1 µM [1, 5]: 86%; inhibition at 1 µM [1, 6]: 3%

**Q.** Which results are given for `CC[C@@H](Oc1cccc(CN(CCCOc2ccc(OC)cc2)c2nc3ccccc3o2)c1)C(=O)O` [Cpd. 18, pemafibrate, reference compound]?
**A.** decrease of circulating IL10 level compared to vehicle [4]: 52%; serum albumin level [4]: restore albumin concentration
